Among the test systems are NCI-H23 lung; SNB-75 CNS; IGROV1 ovarian; NCI-H226 lung; RPMI-8226 leukemia; KM12 colon; HOP-92 NSCLC; ACHN renal; PC-3 prostate; DU-145 prostate.
What all share (assay): DTP human tumour cell line panel, 48 h

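Assay format: 96-well plates, 48-hour exposure. The concentration for full growth arrest is given as TGI.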 Bounds are passed on as bounds.

For the compound `Cc1c(Cl)c2ccccc2n1S(=O)(=O)c1ccccc1`, the TGI with NCI-H23 lung is > 100 µM; in the experiment on SNB-75 CNS, 58 µM; with IGROV1 ovarian, > 100 µM; in the experiment with NCI-H226 lung it was > 100 µM; in the experiment with RPMI-8226 leukemia it was 86 µM; with KM12 colon, > 100 µM. The TGI was 54.2 µM in the experiment with HOP-92 NSCLC and > 100 µM with ACHN renal.

In the case of `C[n+]1c(-c2ccc(/C=N/NC(=N)N/N=C/c3ccc(-c4cn5cc(Cl)ccc5[n+]4C)cc3)cc2)cn2cc(Cl)ccc21`, the TGI with SNB-75 CNS, in the experiment on IGROV1 ovarian, with PC-3 prostate, in the experiment on RPMI-8226 leukemia, with KM12 colon and in the experiment with ACHN renal was > 100 µM throughout.

Take `COC(=O)/C=C\n1c(C)cc(=O)[nH]c1=O`: the TGI in the experiment with NCI-H23 lung, in the experiment on SNB-75 CNS, in the experiment on IGROV1 ovarian, in the experiment with NCI-H226 lung, in the experiment with PC-3 prostate and in the experiment with RPMI-8226 leukemia was > 100 µM throughout. The TGI in the experiment on KM12 colon, in the experiment on HOP-92 NSCLC and in the experiment on ACHN renal was > 100 µM in each case.

For `CC(C)(C)N=NNc1cn(C2OC(CO)C(O)C2O)c(=O)[nH]c1=O` (stereo not given), the TGI in the experiment with NCI-H23 lung was > 100 µM; in the experiment with SNB-75 CNS it was > 100 µM; with IGROV1 ovarian, > 100 µM; in the experiment with NCI-H226 lung, > 100 µM; in the experiment with RPMI-8226 leukemia it was 42.7 µM; in the experiment on KM12 colon, > 100 µM. Besides, the TGI in the experiment with HOP-92 NSCLC and in the experiment with ACHN renal was > 100 µM in each case.

On to `CN1CCCC2(CCCc3ccccc32)C1` (stereo not given), for which the TGI in the experiment on NCI-H23 lung, with SNB-75 CNS, in the experiment on IGROV1 ovarian, in the experiment on NCI-H226 lung, in the experiment with RPMI-8226 leukemia and with KM12 colon was > 100 µM in each case. The TGI in the experiment on HOP-92 NSCLC and with ACHN renal was > 100 µM in each case.

Regarding `CCc1cc(Cc2cc(Cl)c(NC(=O)C(=O)C3NC(=O)NC3=O)c(CC)c2)cc(Cl)c1NC(=O)C(=O)C1NC(=O)NC1=O` (stereo not given), the TGI in the experiment on NCI-H23 lung was 72.6 µM; with SNB-75 CNS it was 90.7 µM; in the experiment on IGROV1 ovarian it was > 100 µM; in the experiment with NCI-H226 lung, > 100 µM; in the experiment with RPMI-8226 leukemia, > 100 µM; in the experiment on KM12 colon, > 100 µM. Also, the TGI in the experiment on HOP-92 NSCLC and with ACHN renal was > 100 µM throughout.

In the case of `Cc1ccc(S(=O)(=O)N/N=C(\c2nc3ccc(Cl)cc3[nH]c2=O)C(O)c2cccc([N+](=O)[O-])c2)cc1` (stereo not given), the TGI in the experiment on NCI-H23 lung, with SNB-75 CNS, with IGROV1 ovarian, in the experiment with NCI-H226 lung, in the experiment with RPMI-8226 leukemia and in the experiment with KM12 colon was > 100 µM in each case. In addition, the TGI in the experiment on HOP-92 NSCLC and in the experiment with ACHN renal was > 100 µM in each case.

For the compound `CCOC(=O)c1cc(-c2cc(OC)c(OC)c([N+](=O)[O-])c2)c([N+](=O)[O-])n1C`, the TGI in the experiment with NCI-H23 lung, with SNB-75 CNS, with IGROV1 ovarian, with NCI-H226 lung, with KM12 colon and in the experiment on HOP-92 NSCLC was > 10 µM throughout. In addition, the concentration for total growth inhibition (TGI) in the experiment on ACHN renal was > 10 µM.

`Clc1ccc(SC(/C=C/NNC2=NC(c3ccccc3)C(c3ccccc3)=NN2)c2ccccc2)cc1` (stereo not given): the TGI in the experiment on NCI-H23 lung was 61.6 µM; with SNB-75 CNS, 64.7 µM; in the experiment on IGROV1 ovarian, > 100 µM; in the experiment on NCI-H226 lung it was 62.7 µM; in the experiment with RPMI-8226 leukemia it was 30.3 µM; with KM12 colon, 67.2 µM. Also, the TGI in the experiment on HOP-92 NSCLC is 32.6 µM; in the experiment with ACHN renal it was > 100 µM.

In the case of `COc1ccc(-c2cc(=O)c3cc4c(cc3[nH]2)OCO4)cc1OC`, the TGI with NCI-H23 lung, in the experiment with SNB-75 CNS, with IGROV1 ovarian, in the experiment on NCI-H226 lung, in the experiment on RPMI-8226 leukemia and with KM12 colon was > 100 µM each time. For the same compound, the TGI in the experiment with HOP-92 NSCLC and with ACHN renal was > 100 µM each time.

On to `O=c1[nH]c(=O)n(C2OC(COP(=O)(O)OP(=O)(O)OC3OC(CO)C(O)C(O)C3O)C(O)C2O)cc1F` (stereo not given), for which the TGI was > 31.5 µM in the experiment on NCI-H23 lung; > 100 µM in the experiment on SNB-75 CNS; 6.26 µM with IGROV1 ovarian; 2.72 µM with NCI-H226 lung; 10.7 µM in the experiment on KM12 colon; 9.62 µM in the experiment with HOP-92 NSCLC. Besides, the TGI in the experiment on ACHN renal turned out to be 7.18 µM.

In the case of `O=S(=O)(CCBr)CCBr`, the TGI with NCI-H23 lung was determined as 18.7 µM; in the experiment on SNB-75 CNS, 25.5 µM; with IGROV1 ovarian, 18.8 µM; in the experiment on NCI-H226 lung it was 54.9 µM; in the experiment on RPMI-8226 leukemia, 12.1 µM; with KM12 colon, 30 µM. In the experiment with HOP-92 NSCLC, this compound came in with a TGI of 20.9 µM.

Regarding `O=C(c1ccc(Cl)cc1)c1ccc(OCCCOc2ccc(C(=O)c3ccc(Cl)cc3)cc2)cc1`, the TGI in the experiment on NCI-H23 lung, in the experiment on SNB-75 CNS, in the experiment on IGROV1 ovarian, in the experiment with NCI-H226 lung, in the experiment on RPMI-8226 leukemia and in the experiment with KM12 colon was > 100 µM each time. In addition, the TGI in the experiment on HOP-92 NSCLC and in the experiment with ACHN renal was > 100 µM each time.

On to `O=C1Nc2ccccc2C12CCNC2Cc1ccccc1` (stereo not given), for which the TGI in the experiment on NCI-H23 lung, in the experiment with SNB-75 CNS, in the experiment with IGROV1 ovarian, in the experiment with RPMI-8226 leukemia, with KM12 colon and in the experiment on HOP-92 NSCLC was > 100 µM in each case. For the same compound, the TGI in the experiment with ACHN renal was > 100 µM.

For `Cc1nc(Nc2ccc(Cl)cc2)sc1C(=O)NNc1ccc([N+](=O)[O-])cc1[N+](=O)[O-]`, the TGI worked out at 35.1 µM in the experiment with NCI-H23 lung; 32.5 µM in the experiment with SNB-75 CNS; 46.6 µM in the experiment on IGROV1 ovarian; 32.6 µM with NCI-H226 lung; 51.8 µM with RPMI-8226 leukemia; 33.9 µM in the experiment with KM12 colon. For the same compound, the TGI in the experiment with HOP-92 NSCLC was determined as 41.4 µM; in the experiment on ACHN renal, 40.9 µM.

In the case of `COC(=O)/C=C1/CCC(C(=O)OC)N1` (stereo not given), the TGI in the experiment on NCI-H23 lung, in the experiment with SNB-75 CNS, in the experiment with IGROV1 ovarian, in the experiment with RPMI-8226 leukemia, in the experiment on KM12 colon and with HOP-92 NSCLC was > 100 µM throughout. Moreover, the concentration for total growth inhibition (TGI) in the experiment with ACHN renal is > 100 µM.

As to `O=C(/N=C/c1c(O)c2ccccc2oc1=O)Nc1ccccc1`, the TGI is > 100 µM in the experiment with NCI-H23 lung; 83.5 µM in the experiment with SNB-75 CNS; > 100 µM in the experiment with IGROV1 ovarian; > 100 µM in the experiment with NCI-H226 lung; > 100 µM in the experiment with RPMI-8226 leukemia; > 100 µM in the experiment with KM12 colon. For the same compound, the TGI in the experiment on HOP-92 NSCLC and in the experiment on ACHN renal was > 100 µM in each case.

Consider `COc1cc2c(cc1OC)C(C(CO)CO)N(CC(O)CCl)CC2` (stereo not given), for which the TGI in the experiment with NCI-H23 lung, in the experiment with SNB-75 CNS, in the experiment with IGROV1 ovarian, with NCI-H226 lung, with RPMI-8226 leukemia and in the experiment on KM12 colon was > 100 µM in each case. Besides, the TGI in the experiment with HOP-92 NSCLC and in the experiment on ACHN renal was > 100 µM each time.

Regarding `N#CCc1n[nH]c(Cc2ccccc2)n1`, the total growth inhibition concentration (TGI) in the experiment with NCI-H23 lung, with SNB-75 CNS, in the experiment with IGROV1 ovarian, in the experiment on PC-3 prostate, in the experiment with KM12 colon and in the experiment on DU-145 prostate was > 100 µM throughout. Moreover, the TGI with HOP-92 NSCLC and in the experiment on ACHN renal was > 100 µM in each case.

As for `CC(=O)[C@@]1(C)CC2(CCN(C)CC2)OC1C` (stereo not given in full), the TGI in the experiment on NCI-H23 lung, in the experiment on SNB-75 CNS, with IGROV1 ovarian, with NCI-H226 lung, with RPMI-8226 leukemia and in the experiment with KM12 colon was > 100 µM in each case. Besides, the TGI with DU-145 prostate, in the experiment on HOP-92 NSCLC and in the experiment on ACHN renal was > 100 µM throughout.

In the case of `COc1ccc2c(c1)N1CCc3cc(OC)c(OC)cc3C1C2` (stereo not given), the TGI in the experiment with NCI-H23 lung is > 100 µM; with IGROV1 ovarian it was > 100 µM; in the experiment on NCI-H226 lung it was 98.7 µM; with KM12 colon, > 100 µM; in the experiment on HOP-92 NSCLC it was > 100 µM; with ACHN renal, > 100 µM.

Regarding `Cc1cccc2c(=O)c([Se]c3coc4c(C)cccc4c3=O)coc12`, the TGI is 32.2 µM with NCI-H23 lung; 31.3 µM in the experiment on SNB-75 CNS; 26.5 µM in the experiment with IGROV1 ovarian; 33.1 µM in the experiment on NCI-H226 lung; > 100 µM in the experiment with RPMI-8226 leukemia; 26.8 µM in the experiment with KM12 colon. The TGI is 40.5 µM in the experiment on HOP-92 NSCLC and 38.3 µM in the experiment with ACHN renal.

In the case of `C[C@]12CCC(=O)C=C1CC[C@@H]1[C@@H]2[C@@H](O)C[C@@]2(C)[C@H]1CC[C@]2(O)C(=O)COC(=O)COCC(=O)O`, the TGI in the experiment with NCI-H23 lung, in the experiment with SNB-75 CNS, in the experiment on IGROV1 ovarian, in the experiment on NCI-H226 lung, in the experiment with RPMI-8226 leukemia and in the experiment on KM12 colon was > 100 µM each time. Besides, the TGI in the experiment on HOP-92 NSCLC and in the experiment on ACHN renal was > 100 µM each time.

`NC(CCCC(N)P(=O)(O)c1ccccc1)P(=O)(O)c1ccccc1` (stereo not given): the TGI in the experiment on NCI-H23 lung, in the experiment with SNB-75 CNS, in the experiment on IGROV1 ovarian, in the experiment with NCI-H226 lung, in the experiment with RPMI-8226 leukemia and in the experiment on KM12 colon was > 261 µM throughout. The TGI with HOP-92 NSCLC and with ACHN renal was > 261 µM in each case.

Source of the values: PubChem BioAssay (NCI).
